The text below walks through data of patent US9630841B2, “Method for producing an aqueous stable chlorine dioxide solution” (A.P.F. AQUA SYSTEM AG, priority 2010, dated 2017).

For data set [1] the following is noted: aqueous solution, 20° C.; cited from earlier work.
Data set [2] in a line: Saturation limit of chlorine dioxide in water. The format is physicochemical. The settings on record: 5° C. and normal pressure. From the text: With the method according to the invention, chlorine dioxide solutions can be produced in any desired and/or suitable concentration. Preferably, aqueous solutions of up to about 2 wt %, preferably about 1 wt % of chlorine dioxide are produced with the method according to the invention. Chlorine dioxide solutions with higher concentrations are more difficult to obtain because of the limited solubility of chlorine dioxide in water, but they can nevertheless be realized. When using higher concentrations of chlorite for the production of the chlorine dioxide solutions according to the invention, in particular when using chlorite concentrations in the range of the saturation solubility of the corresponding chlorite salt, aqueous chlorine dioxide solutions with a concentration of up to about 4.5 wt % can be produced. The value of about 4.5 wt % represents the saturation limit of chlorine dioxide in water determined experimentally at 5° C. and normal pressure. With higher pressure, even free chlorine dioxide phases can be generated in water. […] This means that the solubility of chlorine dioxide is higher, the less foreign matter there is in the solution. […]

For `O=S(=O)([O-])OOS(=O)(=O)[O-].[Na+].[Na+]` [sodium peroxodisulfate], in data set [1], the saturation concentration entry is on record as “about 54.5 wt %”.

In the case of `[O][Cl+][O-]` [chlorine dioxide], in data set [2], the “saturation limit of chlorine dioxide in water” value was “about 4.5 wt %”.
